# Experimental data from patent US7723304B2, “Systems for delivery and release of angiotensin-(1-7)” (Universidade Federal De Minas Gerais—UFMG, priority 2001, dated 2010).
# What was measured:
# [1] = system: G protein-coupled receptor, MAS; test: binding of labeled angiotensin-(1-7) in mouse kidney slices (normal or MAS knockout); settings: MAS knockout mice, 4 °C, autoradiography or fluorescent microscopy
# Description: (§1) After incubation for variable intervals at 4 °C the slices were exposed to autoradioghraphic films or analysed by flourescent microscopy. […] The functional test for the absence of binding in knockout mice was made using the water diuresis model (administration of 5% of the body weight, of H2O).
# [2] = biological target: T1, G protein-coupled receptor, MAS (Mus musculus, UniProt P30554); test: as above; settings: wild type mice
# T1 construct: from tissue; host or cells: mouse kidney slices (wild type; MAS knockout as control)
# T1 sequence (P30554 1-324): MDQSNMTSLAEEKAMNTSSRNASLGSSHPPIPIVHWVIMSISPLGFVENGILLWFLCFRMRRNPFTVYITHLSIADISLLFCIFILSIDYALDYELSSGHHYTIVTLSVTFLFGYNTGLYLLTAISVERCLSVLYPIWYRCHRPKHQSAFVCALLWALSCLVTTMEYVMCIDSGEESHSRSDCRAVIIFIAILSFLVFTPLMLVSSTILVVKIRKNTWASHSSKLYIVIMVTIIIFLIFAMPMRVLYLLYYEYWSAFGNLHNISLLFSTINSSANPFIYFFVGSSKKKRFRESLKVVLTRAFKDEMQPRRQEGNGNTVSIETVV
# Description: as §1
# ACE = ACE (Homo sapiens, UniProt P12821); settings: read-out: IC50 for inhibition of ACE; cited from earlier work
# Wistar rats = settings: free (not encapsulated) peptide, 25-50 ng in the RVLM, previous studies; cited from earlier work
# [3] = system: G protein-coupled receptor, MAS; test: water diuresis model in wild type and MAS knockout mice; format: in vivo, mouse; settings: MAS knockout mice, water load 5% of body weight
# Description: (§2) Angiotensin-(1-7) labeled with 125I or rhodamine-angiotensin-(1-7), fluorescent, were incubated with mouse kidney slices from normal or MAS knockout animals. After incubation for variable intervals at 4 °C the slices were exposed to autoradioghraphic films or analysed by flourescent microscopy. In the knockout mice the specif binding for angiotensin-(1-7) disappeared while the binding for Ang II or Ang IV, used as controls, was inaltered. The Ang_(1-7) binding in kidney slices of wild type mice was displaced by the analogues D-Ala^7-Angiotensin-(1-7) e D-Pro^7-Angiotensin-(1-7). The functional test for the absence of binding in knockout mice was made using the water diuresis model (administration of 5% of the body weight, of H2O). […] In MAS knockout mice the antidiuretic effect of Ang-(1-7) was absent.
# [4] = biological target: T1, G protein-coupled receptor, MAS; test: as above; format: in vivo; settings: wild type mice, 4 pmol/10 g BW, water load 5% of body weight
# Description: as §2
# Sequence of ACE (P12821 30-1306, species assumed): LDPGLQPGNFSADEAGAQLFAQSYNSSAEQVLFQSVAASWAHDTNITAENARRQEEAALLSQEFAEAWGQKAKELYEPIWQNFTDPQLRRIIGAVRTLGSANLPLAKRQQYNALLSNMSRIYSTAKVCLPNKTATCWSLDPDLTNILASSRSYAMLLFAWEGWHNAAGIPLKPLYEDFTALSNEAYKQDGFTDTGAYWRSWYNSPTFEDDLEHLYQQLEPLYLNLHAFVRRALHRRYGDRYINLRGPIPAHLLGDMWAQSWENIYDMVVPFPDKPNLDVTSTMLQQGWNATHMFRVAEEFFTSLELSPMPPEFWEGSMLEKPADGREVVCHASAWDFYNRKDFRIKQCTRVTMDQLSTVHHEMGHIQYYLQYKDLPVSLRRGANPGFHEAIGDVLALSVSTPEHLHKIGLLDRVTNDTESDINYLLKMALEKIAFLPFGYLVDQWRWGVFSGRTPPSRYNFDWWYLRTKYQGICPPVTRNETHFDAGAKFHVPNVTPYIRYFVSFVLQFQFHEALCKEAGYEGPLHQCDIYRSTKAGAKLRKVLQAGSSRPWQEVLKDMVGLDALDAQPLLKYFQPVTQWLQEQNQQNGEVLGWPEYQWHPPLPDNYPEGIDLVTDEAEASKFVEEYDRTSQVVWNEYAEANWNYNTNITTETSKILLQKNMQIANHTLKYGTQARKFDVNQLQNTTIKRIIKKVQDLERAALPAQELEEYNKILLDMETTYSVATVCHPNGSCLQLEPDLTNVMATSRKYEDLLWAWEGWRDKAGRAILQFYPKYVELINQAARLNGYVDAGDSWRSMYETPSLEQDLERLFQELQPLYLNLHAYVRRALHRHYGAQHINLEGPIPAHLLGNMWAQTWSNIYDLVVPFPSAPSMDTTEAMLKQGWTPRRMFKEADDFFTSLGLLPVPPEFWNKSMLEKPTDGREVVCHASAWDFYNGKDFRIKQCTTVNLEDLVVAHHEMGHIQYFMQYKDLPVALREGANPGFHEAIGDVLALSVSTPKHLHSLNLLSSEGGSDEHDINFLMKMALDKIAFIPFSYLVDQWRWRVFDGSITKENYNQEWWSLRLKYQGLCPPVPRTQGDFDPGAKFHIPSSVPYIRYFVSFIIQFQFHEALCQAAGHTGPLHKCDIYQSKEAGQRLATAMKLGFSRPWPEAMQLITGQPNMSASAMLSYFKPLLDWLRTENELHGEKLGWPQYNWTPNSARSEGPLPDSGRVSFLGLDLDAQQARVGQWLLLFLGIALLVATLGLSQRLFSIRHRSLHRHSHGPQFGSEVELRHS
Molecule,binding in kidney slices of MAS knockout mice [1],displacement of Ang-(1-7) binding in kidney slices [2],other results
CC[C@H](C)[C@H](NC(=O)[C@H](Cc1ccc(O)cc1)NC(=O)[C@@H](N)C(C)C)C(=O)N[C@@H](Cc1cnc[nH]1)C(=O)N1CCC[C@H]1C(=O)N[C@@H](Cc1ccccc1)C(=O)O [Ang IV],inaltered,–,–
D-Pro7-Ang-(1-7) [D-Pro^7-Angiotensin-(1-7)],–,displaced,–
"DRVYIHP [Ang-(1-7), Asp-Arg-Val-Tyr-Ile-His-Pro]",disappeared,–,IC50 (ACE): ~1000 nM; duration of increase of PAM (Wistar rats): approximately 10 min; increase of PAM (Wistar rats): 15 mmHg; antidiuretic effect [3]: absent; urine volume (antidiuresis) [4]: reduction of the urine volume

# Further lines, with some results ahead:
binding in kidney slices of MAS knockout mice [1],displacement of Ang-(1-7) binding in kidney slices [2],Molecule,other results
–,displaced,D-[Ala^7]-Ang-(1-7) [D-Ala^7-Angiotensin-(1-7)],–
inaltered,–,"Ang II: main peptide of RAS, used as binding control (DRVYIHPF; Angiotensin-2; UniProt P01019 25-32, looked up)",–
